The text below walks through data of patent publication US5707976A, “Substituted propane-2-OL derivatives” (Richter Gedeon Vegyeszeti Gyar Rt., priority 1993, dated 1998).

One assay has as its system Candida albicans. Kind of assay: Densitometric measurement of the propagation of yeast fungi (BIOSCREEN C), minimal inhibitory concentration. Type of assay: cell-based. The conditions noted are these: for MIC: Candida albicans. How it is done: Densitometric measurement of the propagation of yeast fungi
A microbiological analyzer called BIOSCREEN C (LAB-SYSTEMS, Helsinki, Finland) was used to the measurements. From the test compounds first a stock solution of a concentration of 50 mg/ml, then in 15 steps a bisecting dilution series was prepared with dimethyl sulfoxide. From every dilution step 10 μl each was introduced into the cells of the analysator. Then 390 μl of an aqueous nutrient solution was piperred into the cells. In the mixtures obtained the cells of the yeasts, e.g. Candida albicans, cans, were suspended in such an amount that the optical density of the suspension obtained be about 0.1. Young cultures, shaken at 30° C. for about 12 hours, were used in the preparation of the suspensions. The composition of the aqueous nutrient solution was as follows: 1% by weight of glucose, 0.5% by weight of yeast extract (a product of the firm OXOID Ltd, Great Britain, under the catalogue No. L21) and 0.5% by weight of nutrient broth (a product of the firm OXOID Ltd, Great Britain, under the catalogue No. CM 1/2). The concentration of the compounds to be tested in the cells corresponded to 1250, 625, 312, 156, 78, 39, 19, 9, 4, 2, 1, 0.6, 0.3, 0.15 and 0.07 μg/ml, resp. The densitometric measurement of the cultures was carried out during an incubation at 37° C. for 30 hours. The change in the turbidity of the culture, which can be followed through optical measurement, is proportional to the propagation of the yeast fungi.
As the minimal inhibitory concentration (MIC) of this test that minimal concentration of the tested compound was determined which was able to prevent totally the propagation of the fungus.

For assay [1], the system named is other Candida species and other pathogenic fungi. Kind of assay: in vitro tests, full inhibition of other Candida species and other pathogenic fungi. Type of assay: cell-based. The note with it: read-out: dose of full inhibition. The text has this: Mainly this resistant species causes the disease called "candidiasis" which is quite wide-spread and very difficult to influence.

Where [2] appears, read: 30 h, read-out: MIC values of the individual tests.

In brackets after ≈: the same amount, converted by molar mass. Like-named read-outs stand apart in the source and are kept apart here.

On to `C[Si](C)(C)OC(Cn1cncn1)(Cn1cncn1)c1ccc(F)cc1F` [Example 1, 2-(2,4-Difluorophenyl)-1,3-bis(1,2,4-triazol-1-yl)-2-(trimethylsilyloxy)propane], for which the MIC in the assay with Candida albicans (setting [2]) was 150 mg/L (≈ 396 µM). Also, the “effectiveness against Candida albicans compared with the active ingredient of fluconazole” value in the assay with Candida albicans (factor missing in the printed text) is recorded as “times more effective”. As to `C[Si](C)(C)OC(Cn1ccnc1)(Cn1cncn1)c1ccc(F)cc1F` (stereo not shown) [Example 3, 1-(Imidazol-1-yl)-2-(2,4-difluorophenyl)-3-(1,2,4-triazol-1-yl)-2-(trimethylsilyloxy) propane], the MIC with Candida albicans (setting [2]) was 150 mg/L (≈ 397 µM). On to `C[Si](C)(C)OC(CCl)(Cn1cncn1)c1ccc(F)cc1F` (stereo not shown) [Example 5, 1-Chloro-2-(2,4-difluorophenyl)-3-(1,2,4-triazol-1-yl)-2-(trimethylsilyloxy) propane], for which the MIC in the assay with Candida albicans (setting [2]) was 9 mg/L (≈ 26 µM). As to `CC(Cn1cncn1)(O[Si](C)(C)C)c1ccc(F)cc1F` (stereo not shown) [Example 6, 2-(2,4-Difluorophenyl)-3-(1,2,4-triazol-1-yl)-2-(trimethylsilyloxy)propane], in the assay with Candida albicans (setting [2]), the MIC is 150 mg/L (≈ 482 µM). Turning to `C[Si](C)(C)OC(CCl)(Cn1ccnc1)c1ccc(F)cc1F` (stereo not shown) [Example 8, 1-Chloro-2-(2,4-difluorophenyl)-3-(imidazol-1-yl)-2-(trimethylsilyloxy)propane], in the assay on Candida albicans (setting [2]), the MIC turned out to be 19 mg/L (≈ 55.1 µM).

Turning to `OC(Cn1cncn1)(Cn1cncn1)c1ccc(F)cc1F` [fluconazole, 2-(2,4-difluorophenyl)-1,3-bis(1,2,4-triazol-1-yl)propane-2-ol, reference compound], in the assay on Candida albicans, the “effect against Candida albicans (in words)” value was “relatively weak effect”. Moreover, the MIC with Candida albicans (setting [2]) was 2500 mg/L (≈ 8160 µM); in the assay on Candida albicans (in vitro, read-out: dose of full inhibition), 2500 mg/L (≈ 8160 µM); in assay [1], 0.1 to 10 mg/L (≈ 0.327 to 32.7 µM).
